Experimental data from article PMC8317666, “Combining flavin photocatalysis with parallel synthesis: a general platform to optimize peptides with non-proteinogenic amino acids” (Chemical Science, 2021).

Biological target: Thrombin (Homo sapiens, UniProt P00734)
Assay: Thrombin inhibition assay (Sigma Thrombin Inhibitor Screening Kit MAK243)
[1] = 80 μM peptide (screening grade, mixture of diastereomers), 15 min preincubation with thrombin at room temperature, AMC-based peptide substrate, 37 °C, 30 min incubation, fluorescence Ex/Em 350/450 nm, 384-well, replicate 1 of 2
[2] = 80 μM peptide (screening grade, mixture of diastereomers), 15 min preincubation, AMC substrate, 37 °C, 30 min, fluorescence, average of two independent experiments

## Ac-Gly-Pro-[N(Me)-2-Ind]-Phe-NH2 [3C']
[1]
  Percent thrombin inhibition, 1st run: 96.7%
[2]
  Percent thrombin inhibition, Average: 96.9%
80 μM peptide (screening grade, mixture of diastereomers), 15 min preincubation, AMC substrate, 37 °C, 30 min, fluorescence, average of two independent experiments, listed as 3C′
  Percent thrombin inhibition, Average: 97%

## Ac-G-P-[5-Qin]-F-NH2 [4B']
[1]
  Percent thrombin inhibition, 1st run: -2.1%
[2]
  Percent thrombin inhibition, Average: -2.5%
80 μM peptide (screening grade, mixture of diastereomers), 15 min preincubation, AMC substrate, 37 °C, 30 min, fluorescence, replicate 2 of 2
  Percent thrombin inhibition, 2nd run: -2.9%

## Ac-Gly-Pro-Phe-Phe-NH2 [Ac-G-P-F-F-NH2]
80 μM, parent peptide and HPLC-separated diastereomers of 3C' (>95% purity), 30 min incubation, average of three independent experiments
  Percent thrombin inhibition, Average: 7.1%
80 μM, parent peptide and HPLC-separated diastereomers of 3C' (>95% purity), 30 min incubation, replicate 1 of 3
  Percent thrombin inhibition, 1st run: 9.4%
80 μM, parent peptide and HPLC-separated diastereomers of 3C' (>95% purity), 30 min incubation, replicate 2 of 3
  Percent thrombin inhibition, 2nd run: 5.5%
80 μM, parent peptide and HPLC-separated diastereomers of 3C' (>95% purity), 30 min incubation, replicate 3 of 3
  Percent thrombin inhibition, 3rd run: 6.5%
